Entries after “also recorded” stand apart in the source; their conditions may differ.
What was measured:
[1] = test system: ERE-directed transactivation; test: ERE-promoter-reporter luciferase assay, transient co-transfection; type: cell-based, Old World primate
hsp27 = test: Western blot analysis of hsp27 expression in wild-type breast cells; type: cell-based, Old World primate; conditions: wild-type control cells, Western blot with anti-hsp27 antibody
glucocorticoid receptors = conditions: New World primate cells; cited from earlier work
[2] = test system: ERE-directed transactivation; test: ERE luciferase reporter assay in cells stably transfected with IEBP; type: cell-based, Old World primate; conditions: stable transfectants compared with wild-type cells
Protocol: E2-responsive OWP breast cells from cell line 6299 were incubated with 5.0 ug pcDNA3.1/v5-His-TOPO IEBP plasmid in LIPOTAXI solution for 5 hours followed by the addition of equal volume of 20% FCS-supplemented medium. After incubation overnight, cells were split (1:10 ratio) and incubated with fresh medium containing 500 ug/ml of the geneticin-selective antibiotic G418 sulfate (Life Technology; Grand Island, N.Y.). This medium was replaced every 3-4 days, until stable colonies formed. Single colonies were picked, transferred into a new dish, and incubated with medium containing selection antibiotic G418 until confluence for further study.
Experiments were therefore carried out to clarify whether the overexpression of IEBP antagonized, facilitated, or did nothing to estrogen-induced transactivation. Estrogen-responsive Old World primate cells were transiently co-transfected with IEBP cDNA and an ERE-promoter-reporter construct. After transfection, ERE-directed luciferase activity was reduced 50% compared to vector alone-transfected Old World primate cells. […] Similar results were also obtained following stable transfection of IEBP into Old World primate cells. Increased expression of IEBP in these cells was confirmed by Western blot analyses using an anti-hsp27 antibody.

ERE = test: Electrophoretic mobility shift analysis (EMSA) with idealized ERE as probe; type: binding; conditions: postnuclear extracts from OWP-IEBP stable transfectant clone 1, recombinant ERα
Protocol: This is believed to be due, at least in part, to enhanced binding of estrogens. To determine whether IEBP also functions as a direct competitor for ERE-binding, the inventors carried out electrophoretic mobility shift analyses (EMSAs) using an idealized ERE as a probe with recombinant ERα and/or postnuclear extracts from OWP-IEBP stable transfectant clone 1 as binding proteins. […] To assess this possibility, coimmunoprecipitation was performed by using anti-ERα and anti-hsp27 antibodies. Antihuman ERα antibodies were used to immunoprecipitate […] proteins in postnuculear extracts of both wild-type and IEBP-stably-transfected cells. The immunoprecipitates were subjected to Western blot analysis by using hsp27 antibodies. Data confirmed association between ERα and hsp27. Similar results were also obtained following initial immunoprecipitation with hsp27, and subsequent ERα blotting.

C[C@]12CC[C@@H]3c4ccc(O)cc4CC[C@H]3[C@@H]1CC[C@@H]2O [E2, 17β-estradiol]
effect on ERE-mediated transcription ([1]; transient transfectants, E2 pre-treatment in control cells): stimulated ERE-mediated transcription | hsp27 expression (hsp27): stimulated hsp27 expression in a dose-dependent fashion; also recorded: strongly increased hsp27 expression

FKBP51: heat-shock protein (hsp)90-associated FK 506-binding immunophilin
inhibition of ligand binding to glucocorticoid receptors (glucocorticoid receptors): 74%

B1: IEBP: novel hsp27-related intracellular estradiol binding protein from New World primate B95-8 cells, SEQ ID NO:1 (protein, listed as Homo sapiens)
chain: MTERHVPFSLLQSPSWDPFRDWYPHSHLFDQAFGMPRLPEEWSQWFGTSSWPGYVRPLPPTTVEGPAVAAPAYSRALNQQLSSGVSETADRWRVSLDVNHFAPEELTVKTKDGVVEITGKHEERQDEHGFISRCFTRKYSLPPGVDPTQVSPSLSPEGTLTVDAPMSKPATQSNEITIPVTFESRAQLGGPEAAKSDRSAAK
reduction of ERE-directed luciferase activity ([1]; transient co-transfection of cDNA and ERE-promoter-reporter construct, compared to vector alone-transfected Old World primate cells): 50% | decrease of ERE luciferase reporter activity [2]: 2-3 fold | binding to ERE and competition with ERα for ERE (ERE): neither bound to ERE nor competed with the ERα for binding to ERE

Source: patent US7335735B2, “Intracellular estradiol binding protein” (Cedars-Sinai Medical Center, priority 2003, dated 2008)
